Source: patent US8772300B2, “Phenyl or pyridinyl-ethynyl derivatives” (Hoffmann-La Roche Inc., priority 2011, dated 2014)

Biological target: T1, human mGlu5a receptor (Homo sapiens, UniProt P41594)
T1 construct: expressed in transfected cells
Experiment: Intracellular Ca2+ mobilization assay (mGlu5 PAM)
Format: cell-based
Settings: for Emax: HEK293, maximal response in % of the maximal stimulatory effect obtained with saturating concentrations of L-glutamate, HEK-293 human mGlu5a cells, read-out: Eff. (%); for EC50: HEK-293 cells stably transfected with human mGlu5a receptor, L-glutamate added at EC20 (typically around 80 μM) after 10-30 min pre-incubation with test compound, read-out: EC50 (nM) mGlu5PAM
Procedure: A monoclonal HEK-293 cell line stably transfected with a cDNA encoding for the human mGlu5a receptor was generated; for the work with mGlu5 Positive Allosteric Modulators (PAMs), a cell line with low receptor expression levels and low constitutive receptor activity was selected to allow the differentiation of agonistic versus PAM activity. Cells were cultured according to standard protocols (Freshney, 2000) in Dulbecco's Modified Eagle Medium with high glucose supplemented with 1 mM glutamine, 10% (vol/vol) heat-inactivated bovine calf serum, Penicillin/Streptomycin, 50 μg/ml hygromycin and 15 μg/ml blasticidin (all cell culture reagents and antibiotics from Invitrogen, Basel, Switzerland).
About 24 hrs before an experiment, 5×10^4 cells/well were seeded in poly-D-lysine coated, black/clear-bottomed 96-well plates. The cells were loaded with 2.5 μM Fluo-4AM in loading buffer (1×HBSS, 20 mM HEPES) for 1 hr at 37° C. and washed five times with loading buffer. The cells were transferred into a Functional Drug Screening System 7000 (Hamamatsu, Paris, France), and 11 half logarithmic serial dilutions of test compound at 37° C. were added and the cells were incubated for 10-30 min with on-line recording of fluorescence. Following this pre-incubation step, the agonist L-glutamate was added to the cells at a concentration corresponding to EC20 (typically around 80 μM) with on-line recording of fluorescence; in order to account for day-to-day variations in the responsiveness of cells, the EC20 of glutamate was determined immediately ahead of each experiment by recording of a full dose-response curve of glutamate.
Responses were measured as peak increase in fluorescence minus basal (i.e. fluorescence without addition of L-glutamate), normalized to the maximal stimulatory effect obtained with saturating concentrations of L-glutamate. Graphs were plotted with the % maximal stimulatory using XLfit, a curve fitting program that iteratively plots the data using Levenburg Marquardt algorithm. The single site competition analysis equation used was y=A+((B−A)/(1+((x/C)D))), where y is the % maximal stimulatory effect, A is the minimum y, B is the maximum y, C is the EC50, x is the log 10 of the concentration of the competing compound and D is the slope of the curve (the Hill Coefficient). From these curves the EC50 (concentration at which half maximal stimulation was achieved), the Hill coefficient as well as the maximal response in % of the maximal stimulatory effect obtained with saturating concentrations of L-glutamate were calculated.
A depression of the signal observed after addition of the EC20 concentration of L-glutamate was indicative of an inhibitory activity of the test compound.

T1 sequence (P41594 21-1180 isoform P41594-2 limits assumed): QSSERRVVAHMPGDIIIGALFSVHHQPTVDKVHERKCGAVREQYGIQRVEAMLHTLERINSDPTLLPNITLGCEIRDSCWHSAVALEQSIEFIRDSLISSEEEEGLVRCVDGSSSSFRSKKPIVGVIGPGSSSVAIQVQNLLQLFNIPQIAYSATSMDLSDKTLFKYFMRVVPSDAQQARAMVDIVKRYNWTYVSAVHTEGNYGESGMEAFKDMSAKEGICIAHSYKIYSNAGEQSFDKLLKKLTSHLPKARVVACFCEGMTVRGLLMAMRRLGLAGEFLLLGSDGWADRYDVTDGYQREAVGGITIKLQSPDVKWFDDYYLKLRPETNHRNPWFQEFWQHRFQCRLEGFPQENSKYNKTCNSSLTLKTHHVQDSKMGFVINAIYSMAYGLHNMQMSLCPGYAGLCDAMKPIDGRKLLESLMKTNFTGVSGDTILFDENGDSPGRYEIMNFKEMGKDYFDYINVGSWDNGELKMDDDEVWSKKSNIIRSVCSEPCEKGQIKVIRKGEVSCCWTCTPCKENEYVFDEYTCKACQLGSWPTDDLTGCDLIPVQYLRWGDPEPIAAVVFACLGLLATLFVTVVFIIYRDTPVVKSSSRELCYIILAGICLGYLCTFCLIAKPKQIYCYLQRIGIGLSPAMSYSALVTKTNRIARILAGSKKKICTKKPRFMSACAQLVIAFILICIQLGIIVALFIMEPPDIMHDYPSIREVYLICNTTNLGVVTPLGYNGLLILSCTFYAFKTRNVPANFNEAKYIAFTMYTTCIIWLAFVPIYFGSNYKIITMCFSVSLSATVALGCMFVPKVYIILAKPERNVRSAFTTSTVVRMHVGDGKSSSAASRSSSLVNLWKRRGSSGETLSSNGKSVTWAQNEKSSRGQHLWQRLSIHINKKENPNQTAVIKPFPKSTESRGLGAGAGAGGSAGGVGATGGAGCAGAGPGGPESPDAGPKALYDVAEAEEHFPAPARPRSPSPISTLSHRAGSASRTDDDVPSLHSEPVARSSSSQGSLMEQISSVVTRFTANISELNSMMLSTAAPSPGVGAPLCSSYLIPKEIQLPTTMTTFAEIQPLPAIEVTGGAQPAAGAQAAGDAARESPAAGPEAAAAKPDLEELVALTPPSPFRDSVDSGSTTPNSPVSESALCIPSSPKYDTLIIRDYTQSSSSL

SMILES | Emax [%] | EC50 [nM]
CN(C(=O)c1ccc(C#Cc2cccc(F)c2)cn1)C1(C)CC1 [Example 31, 5-(3-Fluoro-phenylethynyl)-pyridine-2-carboxylic Acid methyl-(1-methyl-cyclopropyl)-amide] | 43 | 17
CC1(C)CC(O)CCN1C(=O)c1ncc(C#Cc2cc(F)ccc2F)cn1 (racemic) [Example 66, (RS)-[5-(2,5-Difluoro-phenylethynyl)-pyrimidin-2-yl]-(4-hydroxy-2,2-dimethyl-piperidin-1-yl)-methanone] | 49 | 101
CC(NC(=O)c1ccc(C#Cc2cccc(Cl)c2)cn1)C(F)(F)F (racemic) [Example 61, (RS)-5-(3-Chloro-phenylethynyl)-pyridine-2-carboxylic Acid (2,2,2-trifluoro-1-methyl-ethyl)-amide] | 83 | 61
CC(NC(=O)c1ccc(C#Cc2ccnc(Cl)c2)cn1)C(F)(F)F (single isomer, unassigned) [Example 59, (R) or (S)-5-(2-Chloro-pyridin-4-ylethynyl)-pyridine-2-carboxylic Acid (2,2,2-trifluoro-1-methyl-ethyl)-amide] | 47 | 27
CN(C(=O)c1ncc(C#Cc2ccccc2)cc1F)C1(C)COC1 [Example 50, 3-Fluoro-5-phenylethynyl-pyridine-2-carboxylic Acid methyl-(3-methyl-oxetan-3-yl)-amide] | 67 | 40
CC(NC(=O)c1ccc(C#Cc2ccnc(Cl)c2)cn1)C(F)(F)F (racemic) [Example 57, (RS)-5-(2-Chloro-pyridin-4-ylethynyl)-pyridine-2-carboxylic Acid (2,2,2-trifluoro-1-methyl-ethyl)-amide] | 42 | 22
O=C(NC1COC1)c1ccc(C#Cc2cccc(F)c2)cn1 [Example 26, 5-(3-Fluoro-phenylethynyl)-pyridine-2-carboxylic Acid oxetan-3-ylamide] | 80 | 43
CN(C(=O)c1ccc(C#Cc2cc(F)ccc2F)cn1)C1(C)COC1 [Example 29, 5-(2,5-Difluoro-phenylethynyl)-pyridine-2-carboxylic Acid methyl-(3-methyl-oxetan-3-yl)-amide] | 45 | 21
Cc1cccc(C#Cc2cnc(C(=O)NC(C)(C)C)nc2)c1 [Example 13, 5-m-Tolylethynyl-pyrimidine-2-carboxylic Acid tert-butylamide] | 83 | 71
CN(C(=O)c1ccc(C#Cc2ccc(F)cc2)cn1)C(C)(C)C [Example 4, 5-(4-Fluoro-phenylethynyl)-pyridine-2-carboxylic Acid tert-butyl-methyl-amide] | 83 | 18
CC1(C)CN(C(=O)c2ccc(C#Cc3cccc(F)c3)cn2)CCO1 [Example 35, (2,2-Dimethyl-morpholin-4-yl)-[5-(3-fluoro-phenylethynyl)-pyridin-2-yl]-methanone] | 57 | 46
CN(C(=O)c1ncc(C#Cc2ccccc2)cc1Cl)C(C)(C)C [Example 43, 3-Chloro-5-phenylethynyl-pyridine-2-carboxylic Acid tert-butyl-methyl-amide] | 69 | 36
CC1(C)CC(O)CCN1C(=O)c1ccc(C#Cc2cccc(F)c2)cn1 (racemic) [Example 63, (RS)-[5-(3-Fluoro-phenylethynyl)-pyridin-2-yl]-(4-hydroxy-2,2-dimethyl-piperidin-1-yl)-methanone] | 45 | 40
CC1(C)CN(C(=O)c2ccc(C#Cc3cccc(F)c3)cn2)CCC1O (racemic) [Example 41, (RS)-[5-(3-Fluoro-phenylethynyl)-pyridin-2-yl]-(4-hydroxy-3,3-dimethyl-piperidin-1-yl)-methanone] | 45 | 72
CC1(C)CC(O)CCN1C(=O)c1ccc(C#Cc2cc(F)ccc2F)cn1 (racemic) [Example 64, (RS)-[5-(2,5-Difluoro-phenylethynyl)-pyridin-2-yl]-(4-hydroxy-2,2-dimethyl-piperidin-1-yl)-methanone] | 42 | 34
CC(C)(C)NC(=O)c1ncc(C#Cc2ccc(F)cc2)cn1 [Example 9, 5-(4-Fluoro-phenylethynyl)-pyrimidine-2-carboxylic Acid tert-butylamide] | 90 | 127
CN(C(=O)c1ccc(C#Cc2ccc(F)cc2)cn1)C1(C)COC1 [Example 28, 5-(4-Fluoro-phenylethynyl)-pyridine-2-carboxylic Acid methyl-(3-methyl-oxetan-3-yl)-amide] | 68 | 37
CN(C(=O)c1ccc(C#Cc2cncc(F)c2)cn1)C(C)(C)C [Example 8, 5-(5-Fluoro-pyridin-3-ylethynyl)-pyridine-2-carboxylic Acid tert-butyl-methyl-amide] | 79 | 62
CN(C(=O)c1ncc(C#Cc2cccc(F)c2)cn1)C(C)(C)C [Example 12, 5-(3-Fluoro-phenylethynyl)-pyrimidine-2-carboxylic Acid tert-butyl-methyl-amide] | 55 | 23
CC1(C)CC(O)CCN1C(=O)c1ncc(C#Cc2cccc(F)c2)cc1F (racemic) [Example 67, (RS)-[3-Fluoro-5-(3-fluoro-phenylethynyl)-pyridin-2-yl]-(4-hydroxy-2,2-dimethyl-piperidin-1-yl)-methanone] | 57 | 54
CC1(C)CCCN(C(=O)c2ncc(C#Cc3ccccc3)cn2)C1 [Example 46, (3,3-Dimethyl-piperidin-1-yl)-(5-phenylethynyl-pyrimidin-2-yl)-methanone] | 59 | 50
CN(C(=O)c1ncc(C#Cc2cc(F)ccc2F)cc1F)C(C)(C)C [Example 23, 5-(2,5-Difluoro-phenylethynyl)-3-fluoro-pyridine-2-carboxylic Acid tert-butyl-methyl-amide] | 38 | 10
CN(C(=O)c1ncc(C#Cc2ccccc2)cc1C#N)C(C)(C)C [Example 52, 3-Cyano-5-phenylethynyl-pyridine-2-carboxylic Acid tert-butyl-methyl-amide] | 96 | 34
CN(C(=O)c1ccc(C#Cc2ccccc2)cn1)C(C)(C)C [Example 2, 5-Phenylethynyl-pyridine-2-carboxylic Acid tert-butyl-methyl-amide] | 87 | 19
CN(C(=O)c1ncc(C#Cc2ccc(F)cc2)cc1F)C(C)(C)C [Example 22, 3-Fluoro-5-(4-fluoro-phenylethynyl)-pyridine-2-carboxylic Acid tert-butyl-methyl-amide] | 65 | 32
Cc1cc(C#Cc2cncc(Cl)c2)cnc1C(=O)N(C)C(C)(C)C [Example 20, 5-(5-Chloro-pyridin-3-ylethynyl)-3-methyl-pyridine-2-carboxylic Acid tert-butyl-methyl-amide] | 26 | 102
CN(C(=O)c1ccc(C#Cc2cncc(Cl)c2)cn1)C(C)(C)C [Example 7, 5-(5-Chloro-pyridin-3-ylethynyl)-pyridine-2-carboxylic Acid tert-butyl-methyl-amide] | 33 | 17
CC(N(C)C(=O)c1ncc(C#Cc2ccccc2)cc1F)C(F)(F)F (racemic) [Example 51, (RS)-3-Fluoro-5-phenylethynyl-pyridine-2-carboxylic Acid methyl-(2,2,2-trifluoro-1-methyl-ethyl)-amide] | 69 | 66
Cc1cc(C#Cc2ccc(F)cc2)cnc1C(=O)N(C)C(C)(C)C [Example 18, 5-(4-Fluoro-phenylethynyl)-3-methyl-pyridine-2-carboxylic Acid tert-butyl-methyl-amide] | 71 | 76
CC1(C)CC(O)CCN1C(=O)c1ncc(C#Cc2cc(F)ccc2F)cc1F (racemic) [Example 68, (RS)-[5-(2,5-Difluoro-phenylethynyl)-3-fluoro-pyridin-2-yl]-(4-hydroxy-2,2-dimethyl-piperidin-1-yl)-methanone] | 54 | 46
